{"source": "PubChem BioAssay (NCI)", "experiment_in_all_cases": "growth of human tumour cells (NCI), 48 h", "key": {"[1]": {"system": "NCI/ADR-RES ovarian"}, "[2]": {"system": "SK-MEL-28 melanoma"}, "[3]": {"system": "MDA-MB-435"}, "[4]": {"system": "SNB-19 CNS"}, "[5]": {"system": "LOX IMVI melanoma"}, "[6]": {"system": "HS 578T breast"}, "[7]": {"system": "SF-268 CNS"}, "[8]": {"system": "NCI-H460 lung"}, "[9]": {"system": "OVCAR-3 ovarian"}, "[10]": {"system": "PC-3 prostate"}, "[11]": {"system": "U251 CNS"}, "[12]": {"system": "NCI-H226 lung"}, "[13]": {"system": "OVCAR-5 ovarian"}, "[14]": {"system": "UACC-257 melanoma"}, "[15]": {"system": "BT-549 breast"}, "[16]": {"system": "HCT-15 colon"}, "[17]": {"system": "MALME-3M melanoma"}, "[18]": {"system": "ACHN renal"}, "[19]": {"system": "K-562 leukemia"}, "[20]": {"system": "HL-60(TB) leukemia"}, "[21]": {"system": "SF-295 CNS"}, "[22]": {"system": "OVCAR-8 ovarian"}, "[23]": {"system": "UO-31 renal"}, "[24]": {"system": "MOLT-4 leukemia"}, "[25]": {"system": "NCI-H522 lung"}, "[26]": {"system": "HT29 colon"}, "[27]": {"system": "A498 renal"}, "[28]": {"system": "HOP-62 NSCLC"}, "[29]": {"system": "OVCAR-4 ovarian"}, "[30]": {"system": "786-0 renal"}, "[31]": {"system": "SR leukemia"}, "[32]": {"system": "SK-MEL-2 melanoma"}, "[33]": {"system": "T-47D breast"}, "[34]": {"system": "A549 NSCLC"}, "[35]": {"system": "SW-620 colon"}, "[36]": {"system": "DU-145 prostate"}, "[37]": {"system": "IGROV1 ovarian"}, "[38]": {"system": "HOP-92 NSCLC"}, "[39]": {"system": "SK-MEL-5 melanoma"}, "[40]": {"system": "RXF 393 renal"}, "[41]": {"system": "NCI-H23 lung"}, "[42]": {"system": "CCRF-CEM leukemia"}, "[43]": {"system": "HCC-2998 colon"}, "[44]": {"system": "CAKI-1 renal"}, "[45]": {"system": "KM12 colon"}, "[46]": {"system": "MCF7 breast"}, "[47]": {"system": "COLO 205 colon"}, "[48]": {"system": "MDA-MB-231 breast"}, "[49]": {"system": "UACC-62 melanoma"}, "[50]": {"system": "RPMI-8226 leukemia"}, "[51]": {"system": "SK-OV-3 ovarian"}, "[52]": {"system": "M14 melanoma"}, "[53]": {"system": "HCT-116 colon"}, "[54]": {"system": "SF-539 CNS"}, "[55]": {"system": "SN12C renal"}, "[56]": {"system": "SNB-75 CNS"}}, "note": "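Compound exposure: 48 hours, 5 concentrations, 96-well plates. The concentration for 50% growth inhibition is given as GI50. At the TGI there is no net growth.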", "data": [{"smiles": "O=C1/C(=C/c2ccc(Cl)cc2Cl)CN(S(=O)(=O)c2ccccc2)C/C1=C\\c1ccc(Cl)cc1Cl", "values": [{"measurement": "GI50", "setting": "[1]", "value": 1150, "unit": "nM"}, {"measurement": "TGI", "setting": "[1]", "value": "> 100", "unit": "µM"}, {"measurement": "GI50", "setting": "[2]", "value": 8.29, "unit": "µM"}, {"measurement": "TGI", "setting": "[2]", "value": "> 100", "unit": "µM"}, {"measurement": "GI50", "setting": "[3]", "value": 701, "unit": "nM"}, {"measurement": "TGI", "setting": "[3]", "value": 2890, "unit": "nM"}, {"measurement": "GI50", "setting": "[4]", "value": 496, "unit": "nM"}, {"measurement": "TGI", "setting": "[4]", "value": 10.8, "unit": "µM"}, {"measurement": "GI50", "setting": "[5]", "value": 193, "unit": "nM"}, {"measurement": "TGI", "setting": "[5]", "value": 395, "unit": "nM"}, {"measurement": "GI50", "setting": "[6]", "value": 322, "unit": "nM"}, {"measurement": "TGI", "setting": "[6]", "value": 3.87, "unit": "µM"}, {"measurement": "GI50", "setting": "[7]", "value": 385, "unit": "nM"}, {"measurement": "TGI", "setting": "[7]", "value": "> 35.7", "unit": "µM"}, {"measurement": "GI50", "setting": "[8]", "value": 224, "unit": "nM"}, {"measurement": "TGI", "setting": "[8]", "value": 498, "unit": "nM"}, {"measurement": "GI50", "setting": "[9]", "value": 259, "unit": "nM"}, {"measurement": "TGI", "setting": "[9]", "value": 620, "unit": "nM"}, {"measurement": "GI50", "setting": "[10]", "value": 299, "unit": "nM"}, {"measurement": "TGI", "setting": "[10]", "value": 979, "unit": "nM"}, {"measurement": "GI50", "setting": "[11]", "value": 173, "unit": "nM"}, {"measurement": "TGI", "setting": "[11]", "value": 351, "unit": "nM"}, {"measurement": "GI50", "setting": "[12]", "value": 513, "unit": "nM"}, {"measurement": "TGI", "setting": "[12]", "value": 1350, "unit": "nM"}, {"measurement": "GI50", "setting": "[13]", "value": 1020, "unit": "nM"}, {"measurement": "TGI", "setting": "[13]", "value": 4.65, "unit": "µM"}, {"measurement": "GI50", "setting": "[14]", "value": 17.7, "unit": "µM"}, {"measurement": "TGI", "setting": "[14]", "value": "> 100", "unit": "µM"}, {"measurement": "GI50", "setting": "[15]", "value": 617, "unit": "nM"}, {"measurement": "TGI", "setting": "[15]", "value": 2640, "unit": "nM"}, {"measurement": "GI50", "setting": "[16]", "value": 226, "unit": "nM"}, {"measurement": "TGI", "setting": "[16]", "value": 614, "unit": "nM"}, {"measurement": "GI50", "setting": "[17]", "value": 7.2, "unit": "µM"}, {"measurement": "TGI", "setting": "[17]", "value": "> 100", "unit": "µM"}, {"measurement": "GI50", "setting": "[18]", "value": 717, "unit": "nM"}, {"measurement": "TGI", "setting": "[18]", "value": 6.88, "unit": "µM"}, {"measurement": "GI50", "setting": "[19]", "value": 326, "unit": "nM"}, {"measurement": "TGI", "setting": "[19]", "value": "> 38.3", "unit": "µM"}, {"measurement": "GI50", "setting": "[20]", "value": 731, "unit": "nM"}, {"measurement": "TGI", "setting": "[20]", "value": "> 19.9", "unit": "µM"}, {"measurement": "GI50", "setting": "[21]", "value": 279, "unit": "nM"}, {"measurement": "TGI", "setting": "[21]", "value": 1990, "unit": "nM"}, {"measurement": "GI50", "setting": "[22]", "value": 313, "unit": "nM"}, {"measurement": "GI50", "setting": "[23]", "value": 233, "unit": "nM"}, {"measurement": "TGI", "setting": "[23]", "value": 675, "unit": "nM"}, {"measurement": "GI50", "setting": "[24]", "value": 460, "unit": "nM"}, {"measurement": "TGI", "setting": "[24]", "value": 12, "unit": "µM"}, {"measurement": "GI50", "setting": "[25]", "value": 1130, "unit": "nM"}, {"measurement": "TGI", "setting": "[25]", "value": 3.93, "unit": "µM"}, {"measurement": "GI50", "setting": "[26]", "value": 301, "unit": "nM"}, {"measurement": "TGI", "setting": "[26]", "value": 907, "unit": "nM"}, {"measurement": "GI50", "setting": "[27]", "value": 1500, "unit": "nM"}, {"measurement": "TGI", "setting": "[27]", "value": 8.76, "unit": "µM"}, {"measurement": "GI50", "setting": "[28]", "value": 343, "unit": "nM"}, {"measurement": "GI50", "setting": "[29]", "value": 291, "unit": "nM"}, {"measurement": "TGI", "setting": "[29]", "value": "> 96", "unit": "µM"}, {"measurement": "GI50", "setting": "[30]", "value": 230, "unit": "nM"}, {"measurement": "TGI", "setting": "[30]", "value": 509, "unit": "nM"}, {"measurement": "GI50", "setting": "[31]", "value": 198, "unit": "nM"}, {"measurement": "TGI", "setting": "[31]", "value": 925, "unit": "nM"}, {"measurement": "GI50", "setting": "[32]", "value": 15.4, "unit": "µM"}, {"measurement": "TGI", "setting": "[32]", "value": "> 100", "unit": "µM"}, {"measurement": "GI50", "setting": "[33]", "value": 594, "unit": "nM"}, {"measurement": "GI50", "setting": "[34]", "value": 316, "unit": "nM"}, {"measurement": "TGI", "setting": "[34]", "value": 1510, "unit": "nM"}, {"measurement": "GI50", "setting": "[35]", "value": 314, "unit": "nM"}, {"measurement": "TGI", "setting": "[35]", "value": 2540, "unit": "nM"}, {"measurement": "GI50", "setting": "[36]", "value": 466, "unit": "nM"}, {"measurement": "TGI", "setting": "[36]", "value": 19.7, "unit": "µM"}, {"measurement": "GI50", "setting": "[37]", "value": 344, "unit": "nM"}, {"measurement": "TGI", "setting": "[37]", "value": 1290, "unit": "nM"}, {"measurement": "GI50", "setting": "[38]", "value": 1700, "unit": "nM"}, {"measurement": "TGI", "setting": "[38]", "value": 5.55, "unit": "µM"}, {"measurement": "GI50", "setting": "[39]", "value": 14.5, "unit": "µM"}, {"measurement": "TGI", "setting": "[39]", "value": "> 100", "unit": "µM"}, {"measurement": "GI50", "setting": "[40]", "value": 1050, "unit": "nM"}, {"measurement": "TGI", "setting": "[40]", "value": 2680, "unit": "nM"}, {"measurement": "GI50", "setting": "[41]", "value": 381, "unit": "nM"}, {"measurement": "TGI", "setting": "[41]", "value": 2400, "unit": "nM"}, {"measurement": "GI50", "setting": "[42]", "value": 291, "unit": "nM"}, {"measurement": "TGI", "setting": "[42]", "value": 1300, "unit": "nM"}, {"measurement": "GI50", "setting": "[43]", "value": 379, "unit": "nM"}, {"measurement": "TGI", "setting": "[43]", "value": 1310, "unit": "nM"}, {"measurement": "GI50", "setting": "[44]", "value": 817, "unit": "nM"}, {"measurement": "TGI", "setting": "[44]", "value": 4.22, "unit": "µM"}, {"measurement": "GI50", "setting": "[45]", "value": 276, "unit": "nM"}, {"measurement": "TGI", "setting": "[45]", "value": 728, "unit": "nM"}, {"measurement": "GI50", "setting": "[46]", "value": 292, "unit": "nM"}, {"measurement": "TGI", "setting": "[46]", "value": "> 100", "unit": "µM"}, {"measurement": "GI50", "setting": "[47]", "value": 339, "unit": "nM"}, {"measurement": "TGI", "setting": "[47]", "value": 1210, "unit": "nM"}, {"measurement": "GI50", "setting": "[48]", "value": 469, "unit": "nM"}, {"measurement": "TGI", "setting": "[48]", "value": 2670, "unit": "nM"}, {"measurement": "GI50", "setting": "[49]", "value": 1180, "unit": "nM"}, {"measurement": "TGI", "setting": "[49]", "value": 4.41, "unit": "µM"}, {"measurement": "GI50", "setting": "[50]", "value": 196, "unit": "nM"}, {"measurement": "TGI", "setting": "[50]", "value": 562, "unit": "nM"}, {"measurement": "GI50", "setting": "[51]", "value": 7.32, "unit": "µM"}, {"measurement": "TGI", "setting": "[51]", "value": 98.9, "unit": "µM"}, {"measurement": "GI50", "setting": "[52]", "value": 2770, "unit": "nM"}, {"measurement": "TGI", "setting": "[52]", "value": "> 100", "unit": "µM"}, {"measurement": "GI50", "setting": "[53]", "value": 198, "unit": "nM"}, {"measurement": "TGI", "setting": "[53]", "value": 421, "unit": "nM"}, {"measurement": "GI50", "setting": "[54]", "value": 315, "unit": "nM"}, {"measurement": "TGI", "setting": "[54]", "value": 1130, "unit": "nM"}, {"measurement": "GI50", "setting": "[55]", "value": 288, "unit": "nM"}, {"measurement": "TGI", "setting": "[55]", "value": 1100, "unit": "nM"}, {"measurement": "GI50", "setting": "[56]", "value": 473, "unit": "nM"}, {"measurement": "TGI", "setting": "[56]", "value": 8.2, "unit": "µM"}]}]}
